Read-outs that look alike come from different tables or passages of the source.
Experiments:
[1] = system: reserpine-induced hypothermia; test: antagonism to reserpine-induced hypothermia; type: in vivo, male mice; conditions: Mus musculus, po, 5 h; mice; p.o. by gavage 1 h before reserpine 1.5 mg/kg i.p.; rectal temperature 2 h after blepharospasm evaluation
Experimental: (§1) The antidepressant activity of the ergoline derivatives according to the invention can be evaluated by antagonism to reserpine-induced blepharospasm and hypothermia.
(§2) The tests were performed in an air-conditioned room at a constant termperature of 19°±1° C. Randomized groups of male mice were respectively treated by gavage with appropriate screening doses (from a maximum of 25 mg/kg below) of the test compounds, suspended in the vehicle (Methocel 0.5%; 1 ml/100 g b.w.), or with the vehicle alone. One hour later the animals received an i.p. injection of reserpine (1.5 mg/kg; 1 ml/100 g b.w.), and one of the control groups the same volume of the vehicle alone (blank controls).
(§3) Three hours after pretreatments, i.e. two hours after reserpine or vehicle treatments, blepharospasm was evaluated in scores as proposed by Rubin et al. (J. Pharmacol. 120, 125 (1957)). Two hours after the above mentioned evaluation the rectal temperature of the animals was recorded by an appropriate probe connected to a digital thermometer (Ellab DU-3).

[2] = system: reserpine-induced blepharospasm; test: antagonism to reserpine-induced blepharospasm; type: in vivo, male mice; conditions: Mus musculus, po, 3 h, read-out: Reserpine antagonism ED50, Blepharospasm
Experimental: as §1, §2, §3

[3] = orientative acute toxicity; conditions: in vivo, po

| SMILES | ED50 [1] | ED50 ([2]; mice, p.o. by gavage 1 h before reserpine 1.5 mg/kg i.p., scored 2 h after reserpine) | LD50 [3] | ED50 [2] |
| --- | --- | --- | --- | --- |
| CN(C)CCCN1c2ccccc2CCc2ccccc21 [Imipramine, reference compound] | 18.2 mg/kg | 8.1 mg/kg |  |  |
| C=CCN1C[C@H](C(=O)Nc2nccs2)C[C@@H]2c3cccc4[nH]cc(c34)C[C@H]21 [Example 6, 6-allyl-8β-(2-thiazolyl-carbamoyl)-ergoline] | 4 mg/kg |  | > 300 mg/kg | 2.5 mg/kg |
| CCCN1C[C@H](C(=O)Nc2nccs2)C[C@@H]2c3cccc4[nH]cc(c34)C[C@H]21 [Example 7, 6-propyl-8β-(2-thiazolyl-carbamoyl)-ergoline] | 0.6 mg/kg |  | > 300 mg/kg | 0.5 mg/kg |
| Cc1nnc(NC(=O)[C@@H]2C[C@@H]3c4cccc5[nH]cc(c45)C[C@H]3N(C)C2)s1 [Example 10, 6-methyl-8β-[2-(5-methyl-1,3,4-thiadiazolyl)-carbamoyl]-ergoline] | 3.1 mg/kg |  | > 600 mg/kg | 3.5 mg/kg |
| C=CCN1C[C@H](C(=O)Nc2ccc(Cl)nn2)C[C@@H]2c3cccc4[nH]cc(c34)C[C@H]21 [Example 5, 6-allyl-8β-(6-chloro-3-pyridazinyl-carbamoyl)-ergoline] | 4.5 mg/kg |  | > 600 mg/kg | 3.6 mg/kg |
| CN1C[C@H](C(=O)Nc2nccs2)C[C@@H]2c3cccc4c3c(cn4C)C[C@H]21 [1,6-dimethyl-8β-(2-thiazolyl-carbamoyl)-ergoline, reference compound] | 15 mg/kg |  |  | 7 mg/kg |
| Cc1nnc(NC(=O)[C@@H]2C[C@@H]3c4cccc5[nH]c(C)c(c45)C[C@H]3N(C)C2)s1 [Example 16, 2,6-dimethyl-8β-[2-(5-methyl-1,3,4-thiadiazolyl)-carbamoyl]-ergoline] | 1.7 mg/kg |  | > 800 mg/kg | 1 mg/kg |
| Cc1[nH]c2cccc3c2c1C[C@@H]1[C@@H]3C[C@@H](C(=O)Nc2ccc(Cl)nn2)CN1C [Example 4, 2,6-dimethyl-8β-(6-chloro-3-pyridazinyl-carbamoyl)-ergoline] | 0.6 mg/kg |  | > 300 mg/kg | 0.2 mg/kg |

Source: patent US4675404A, “8-pyridazinylcarbamoyl ergolines” (Farmitala Carlo Erba S.p.A., priority 1981, dated 1987)
